Experiment in all cases: AK assay 384-well format, Prestwick library screening
Assay [1] deals with E. faecium. The assay is classed as cell-based, Enterococcus faecium. To be noted: 50 μM final drug concentration; for fold induction at 50 µM: Enterococcus faecium, 3 h.
The subject of assay [2] is S. aureus strain USA300-0114. The assay is classed as cell-based, Staphylococcus aureus. To be noted: 50 μM final drug concentration; for fold induction at 50 µM: Staphylococcus aureus, USA300, 3 h.
In assay [3] the test system is K. pneumoniae. The assay is classed as cell-based, Klebsiella pneumoniae. The conditions noted are these: 50 μM final drug concentration; for fold induction at 50 µM: Klebsiella pneumoniae, 3 h.
Assay [4] deals with A. baumannii strain 98-37-09. Type of assay: cell-based, Acinetobacter baumannii. The conditions noted are these: 50 μM final drug concentration; for fold induction at 50 µM: Acinetobacter baumannii, 983709, 3 h.
The subject of assay [5] is P. aeruginosa. Type of assay: cell-based, Pseudomonas aeruginosa. To be noted: 50 μM final drug concentration; for fold induction at 50 µM: Pseudomonas aeruginosa, 3 h.
Assay [6] concerns E. cloacae. The assay is classed as cell-based, Enterobacter cloacae. To be noted: 50 μM final drug concentration; for fold induction at 50 µM: Enterobacter cloacae, 3 h.
Assay [7] concerns E. coli. The assay is classed as cell-based, Escherichia coli. To be noted: 50 μM final drug concentration; for fold induction at 50 µM: Escherichia coli, 3 h.
The mark [8] stands for this setting: planktonic, cutoff for positive-scoring molecules 3-fold increase, read-out: AK-based Prestwick Library Screening Results, E. faecium (fold increase in extracellular AK activity).
[9] abbreviates: planktonic, cutoff for positive-scoring molecules 3-fold increase, read-out: AK-based Prestwick Library Screening Results, S. aureus (fold increase in extracellular AK activity).
[10] abbreviates: planktonic, cutoff for positive-scoring molecules 3-fold increase, read-out: AK-based Prestwick Library Screening Results, K. pneumoniae (fold increase in extracellular AK activity).
Where [11] appears, read: planktonic, cutoff for positive-scoring molecules 3-fold increase, read-out: AK-based Prestwick Library Screening Results, A. baumannii (fold increase in extracellular AK activity).
Setting [12] is: planktonic, cutoff for positive-scoring molecules 3-fold increase, read-out: AK-based Prestwick Library Screening Results, P. aeruginosa (fold increase in extracellular AK activity).
Where [13] appears, read: planktonic, cutoff for positive-scoring molecules 3-fold increase, read-out: AK-based Prestwick Library Screening Results, E. cloacae (fold increase in extracellular AK activity).
[14] abbreviates: planktonic, cutoff for positive-scoring molecules 3-fold increase, read-out: AK-based Prestwick Library Screening Results, E. coli (fold increase in extracellular AK activity).
Setting [15] is: 384-well format, cutoff for positive-scoring molecules 3-fold increase, read-out: AK-based Prestwick Library Screening Results, E. faecium (increase in extracellular AK activity).
Where [16] appears, read: 384-well format, cutoff for positive-scoring molecules 3-fold increase, read-out: AK-based Prestwick Library Screening Results, S. aureus (increase in extracellular AK activity).
The mark [17] stands for this setting: 384-well format, cutoff for positive-scoring molecules 3-fold increase, read-out: AK-based Prestwick Library Screening Results, K. pneumoniae (increase in extracellular AK activity).
[18] abbreviates: 384-well format, cutoff for positive-scoring molecules 3-fold increase, read-out: AK-based Prestwick Library Screening Results, A. baumannii (increase in extracellular AK activity).
The mark [19] stands for this setting: 384-well format, cutoff for positive-scoring molecules 3-fold increase, read-out: AK-based Prestwick Library Screening Results, P. aeruginosa (increase in extracellular AK activity).
Where [20] appears, read: 384-well format, cutoff for positive-scoring molecules 3-fold increase, read-out: AK-based Prestwick Library Screening Results, E. cloacae (increase in extracellular AK activity).
Where [21] appears, read: 384-well format, cutoff for positive-scoring molecules 3-fold increase, read-out: AK-based Prestwick Library Screening Results, E. coli (increase in extracellular AK activity).

Here are results for 8 molecules from patent publication US10004701B2, “Methods and compositions for treating infection” (UNIVERSITY OF ROCHESTER, priority 2012, dated 2018).

Structures are written as SMILES. Counter-ions that a name gives are not always drawn. Like-named read-outs stand apart in the source and are kept apart here.

For the molecule `CN1CCN(C(c2ccccc2)c2ccc(Cl)cc2)CC1` (centres unmarked) [Chlorcyclizine hydrochloride], the fold induction at 50 µM came to 1 in assay [1] (cutoff for positive-scoring molecules 3-fold increase, read-out: AK-based Prestwick Library Screening Results, E. faecium (fold increase in extracellular AK activity)); 1.2 in assay [2] (cutoff for positive-scoring molecules 3-fold increase, read-out: AK-based Prestwick Library Screening Results, S. aureus (fold increase in extracellular AK activity)); 1.1 in assay [3] (cutoff for positive-scoring molecules 3-fold increase, read-out: AK-based Prestwick Library Screening Results, K. pneumoniae (fold increase in extracellular AK activity)); 1.5 in assay [4] (cutoff for positive-scoring molecules 3-fold increase, read-out: AK-based Prestwick Library Screening Results, A. baumannii (fold increase in extracellular AK activity)); 1.1 in assay [5] (cutoff for positive-scoring molecules 3-fold increase, read-out: AK-based Prestwick Library Screening Results, P. aeruginosa (fold increase in extracellular AK activity)); 1.6 in assay [6] (cutoff for positive-scoring molecules 3-fold increase, read-out: AK-based Prestwick Library Screening Results, E. cloacae (fold increase in extracellular AK activity)). The fold induction at 50 µM in assay [7] (cutoff for positive-scoring molecules 3-fold increase, read-out: AK-based Prestwick Library Screening Results, E. coli (fold increase in extracellular AK activity)) was found to be 1.3.

`CN1C(=O)CCS(=O)(=O)C1c1ccc(Cl)cc1` (centres unmarked) [Chlormezanone]: the fold induction at 50 µM in assay [1] (planktonic E. faecium, […], read-out: AK-based Prestwick Library Screening Results, E. faecium (increase in extracellular AK activity)) worked out at 1; in assay [2] (planktonic S. aureus, […], read-out: AK-based Prestwick Library Screening Results, S. aureus (increase in extracellular AK activity)), 0.7; in assay [3] (planktonic K. pneumoniae, […], read-out: AK-based Prestwick Library Screening Results, K. pneumoniae (increase in extracellular AK activity)), 0.6; in assay [4] (planktonic A. baumannii, […], read-out: AK-based Prestwick Library Screening Results, A. baumannii (increase in extracellular AK activity)), 0.7; in assay [5] (planktonic P. aeruginosa, […], read-out: AK-based Prestwick Library Screening Results, P. aeruginosa (increase in extracellular AK activity)) it was 0.6; in assay [6] (planktonic E. cloacae, […], read-out: AK-based Prestwick Library Screening Results, E. cloacae (increase in extracellular AK activity)), 0.7. Also, the fold induction at 50 µM in assay [7] (planktonic E. coli, […], read-out: AK-based Prestwick Library Screening Results, E. coli (increase in extracellular AK activity)) stood at 0.7.

In the case of `O=C(/C=C/c1ccc(O)c(O)c1)O[C@@H]1C[C@](O)(C(=O)O)C[C@@H](O)[C@H]1O` [Chlorogenic acid], the fold induction at 50 µM in assay [1] (planktonic E. faecium, cutoff for positive-scoring molecules 3-fold increase, read-out: AK-based Prestwick Library Screening Results, E. faecium (increase in extracellular AK activity)) is 0.9; in assay [2] (planktonic S. aureus, cutoff for positive-scoring molecules 3-fold increase, read-out: AK-based Prestwick Library Screening Results, S. aureus (increase in extracellular AK activity)), 0.5; in assay [3] (planktonic K. pneumoniae, cutoff for positive-scoring molecules 3-fold increase, read-out: AK-based Prestwick Library Screening Results, K. pneumoniae (increase in extracellular AK activity)), 0.7; in assay [4] (planktonic A. baumannii, cutoff for positive-scoring molecules 3-fold increase, read-out: AK-based Prestwick Library Screening Results, A. baumannii (increase in extracellular AK activity)), 0.8; in assay [5] (planktonic P. aeruginosa, cutoff for positive-scoring molecules 3-fold increase, read-out: AK-based Prestwick Library Screening Results, P. aeruginosa (increase in extracellular AK activity)) it was 0.7; in assay [6] (planktonic E. cloacae, cutoff for positive-scoring molecules 3-fold increase, read-out: AK-based Prestwick Library Screening Results, E. cloacae (increase in extracellular AK activity)), 0.8. For the same molecule, in assay [7] (planktonic E. coli, cutoff for positive-scoring molecules 3-fold increase, read-out: AK-based Prestwick Library Screening Results, E. coli (increase in extracellular AK activity)), the fold induction at 50 µM came to 0.8.

For the molecule `CN(C)CCN(Cc1ccc(Cl)cc1)c1ccccn1` [Chloropyramine hydrochloride], the fold induction at 50 µM in assay [1] (setting [8]) was 0.9; in assay [2] (setting [9]), 0.5; in assay [3] (setting [10]), 0.6; in assay [4] (setting [11]) it was 0.6; in assay [5] (setting [12]), 0.5; in assay [6] (setting [13]), 0.6. Moreover, the fold induction at 50 µM in assay [7] (setting [14]) is 0.7.

As for `NS(=O)(=O)c1cc2c(cc1Cl)N=CNS2(=O)=O` [Chlorothiazide], the fold induction at 50 µM in assay [1] (setting [15]) was 1; in assay [2] (setting [16]), 0.8; in assay [3] (setting [17]), 0.7; in assay [4] (setting [18]) it was 0.9; in assay [5] (setting [19]), 0.9; in assay [6] (setting [20]), 0.9. The fold induction at 50 µM in assay [7] (setting [21]) was found to be 0.9.

Take `COc1ccc(C(Cl)=C(c2ccc(OC)cc2)c2ccc(OC)cc2)cc1` [Chlorotrianisene]: the fold induction at 50 µM in assay [1] (setting [8]) turned out to be 1; in assay [2] (setting [9]), 0.8; in assay [3] (setting [10]), 0.8; in assay [4] (setting [11]), 0.8; in assay [5] (setting [12]), 0.8; in assay [6] (setting [13]) it was 1.4. Moreover, the fold induction at 50 µM in assay [7] (setting [14]) is 0.9.

Turning to `CN(C)CCC(c1ccc(Cl)cc1)c1ccccn1` (centres unmarked) [Chlorpheniramine maleate], the fold induction at 50 µM turned out to be 0.9 in assay [1] (setting [15]); 0.8 in assay [2] (setting [16]); 0.7 in assay [3] (setting [17]); 0.9 in assay [4] (setting [18]); 0.8 in assay [5] (setting [19]); 1.1 in assay [6] (setting [20]). In addition, the fold induction at 50 µM in assay [7] (setting [21]) is 1.

On to `NC(=O)OCC(O)COc1ccc(Cl)cc1` (centres unmarked) [Chlorphensin carbamate], for which, in assay [1] (planktonic E. faecium, 384-well, cutoff for positive-scoring molecules 3-fold increase), the “AK-based Prestwick Library Screening Results: E. faecium (increase in extracellular AK activity)” value is recorded as 0.9. Moreover, in assay [2] (planktonic S. aureus, 384-well, cutoff for positive-scoring molecules 3-fold increase), the “AK-based Prestwick Library Screening Results: S. aureus (increase in extracellular AK activity)” value is on record as 1.0. Further, the “AK-based Prestwick Library Screening Results: K. pneumoniae (increase in extracellular AK activity)” value in assay [3] (planktonic K. pneumoniae, 384-well, cutoff for positive-scoring molecules 3-fold increase) is recorded as 1.1. For the same molecule, the “AK-based Prestwick Library Screening Results: A. baumannii (increase in extracellular AK activity)” value in assay [4] (planktonic A. baumannii, 384-well, cutoff for positive-scoring molecules 3-fold increase) is reported as 1.3. Further, the “AK-based Prestwick Library Screening Results: P. aeruginosa (increase in extracellular AK activity)” value in assay [5] (planktonic P. aeruginosa, 384-well, cutoff for positive-scoring molecules 3-fold increase) was determined as 1.1. The “AK-based Prestwick Library Screening Results: E. cloacae (increase in extracellular AK activity)” value in assay [6] (planktonic E. cloacae, 384-well, cutoff for positive-scoring molecules 3-fold increase) is listed as 1.4. The “AK-based Prestwick Library Screening Results: E. coli (increase in extracellular AK activity)” value in assay [7] (planktonic E. coli, 384-well, cutoff for positive-scoring molecules 3-fold increase) is given as 1.2.
